Assays:
[1] = system: LSD1-induced activation of AR; assay: Transient transfection, AR-dependent luciferase reporter with co-expressed LSD1 and AR in 293 cells; type: cell-based; conditions: R1881, 3×10^−3 M pargyline, 1×10^−3 M deprenyl or 1×10^−4 M chlorgyline, 18 hours, FIG. 4e
Description: 293 and CV-1 cells were cultured and transfected as described^13. LNCaP cells were cultured in phenol-red-free RPMI1640 supplemented with 10% double-stripped fetal calf serum (dsFCS) and transfected with Effectene (Qiagen). The following amounts per well were used: MMTV-LUC, ARE2x-TATA-LUC, ARE2x-TK-LUC, TK-LUC, PSA-LUC, Slp-ARU-TATA-LUC 500 ng each, 25 ng expression plasmids for AR; 500 ng expression plasmids for LSD1 1-174, LSD1 175-246, LSD1 247-852, pSUPER-control, and pSUPER-LSD1; 100 to 500 ng expression plasmids for LSD1 were transfected per well. […] Luciferase activity was assayed as described^14. All experiments were repeated at least five times in duplicate.

LSD1 = molecular target: T1, LSD1 (Homo sapiens, UniProt O60341); assay: Chromatin immunoprecipitation (ChIP) at the PSA promoter in LNCaP cells; type: cell-based
T1 construct: endogenous in cells; host or cells: LNCaP
Description: ChIP experiments were performed essentially as described^15. […] LNCaP cells were transfected three days before harvesting for ChIP with or without siRNA (Qiagen) following the manufacture's instructions. Immunoprecipitation was performed with specific antibodies (α-monoMeK9H3, α-diMeK9H3, α-triMeK9H3, α-monoMeK4H3, α-diMeK4H3, α-triMeK4H3, α-H3 (abcam), α-LSD1, and α-AR PG21 (Upstate Biotechnology) on GammaBind™-Sepharose 4B (GE-Healthcare). For PCR, 1-5 μl out of 50 μl DNA extract was used. For Re-ChIP assays, immunoprecipitations were sequentially washed with TSE I, TSE II, buffer III, and TE^15. Complexes were eluted by incubation with 10 mM DTT at 37° C. for 30 min, diluted 50 times with dilution buffer^15 followed by a second immunoprecipitation with the indicated antibody. Primer sequences were as follows: middle; PSA (−2223/−1951) 5′-[…]-3′ and 5′-[…]-3′; PCR primers for ARE I+II (PSA (−459/−121)) and ARE III (PSA (−4288/−3922)) have been described previously^16.

[2] = pargyline, R1881, FIG. 3d and data not shown

| SMILES | LSD1-induced ligand-dependent activation of AR (reporter activity) [1] | demethylation of mono- and dimethyl H3-K9 during androgen-induced transcription (LSD1; PSA promoter, pargyline 18 hours, 10^−8 M R1881 210 min, FIG. 3d) | methylation levels of trimethyl H3-K9 (LSD1; PSA promoter, pargyline 18 hours, R1881, FIG. 3d) | methylation status of H3-K27 (LSD1; [2]) | methylation status of H4-K20 (LSD1; [2]) |
| --- | --- | --- | --- | --- | --- |
| C#CCN(C)CCCOc1ccc(Cl)cc1Cl [clorgyline, N-methyl-N-propargyl-3-(2,4-dichlorophenoxy-)propylamine] | severely impair |  |  |  |  |
| C#CCN(C)[C@H](C)Cc1ccccc1 [deprenyl, (R)-(−)-N,2-dimethyl-N-2-propynylphenethylamine] | severely impair |  |  |  |  |
| C#CCN(C)Cc1ccccc1 [pargyline, N-methyl-N-2-propynyl-benzylamine] | severely impair | blocks | remains unchanged | remains unchanged | remains unchanged |

— US8680157B2, “Androgen receptor-dependent gene expression control” (Universitaetsklinikum Freiburg, priority 2005, dated 2014)
